Reference: patent publication US12030862B2, “Allosteric chromenone inhibitors of phosphoinositide 3-kinase (PI3K) for the treatment of disease” (Petra Pharma Corporation, priority 2021, dated 2024)

What was measured:
[1] = molecular target: T1, PI3K-α (PIK3CA) wild-type (WT) (p110α/p85α complex) (Homo sapiens, UniProt P42336); assay: PI3K-Alpha kinase (PIK3CA) biochemical ADP-Glo assay, wild-type; details: 20 uM ATP, 1 h pre-incubation
T1 construct: Recombinant, catalytically active human full length PIK3KA Wild-type and H1047R mutant were purchased as 1:1 complex; 6xHis (N); purchased EMD Millipore Sigma 14-602M
Text: (§1) PI3K-Alpha kinase (PIK3CA) activity, wild-type and H1047R mutant and determining IC50 values for inhibitors
(§2) Recombinant, catalytically active human full length PIK3KA Wild-type and H1047R mutant were purchased as 1:1 complex of N-terminal 6× his tagged p110α (catalytic) and untagged p85α (regulatory subunit) from EMD Millipore Sigma (cat. no. 14-602M and 14-792M, respectively). PIP2diC8 (Avanti Polar Lipids Inc., cat. no. 850185) or Soy PI (Avanti Polar Lipids Inc., cat. No. 840044P) was used as lipid substrate. PIP2diC8 or PI lyophilized powder was dissolved in milliQ water to a concentration of 1 mM just before use. 10 mM stock compounds in DMSO were serially diluted 1:3 to generate a 10-point curve and plated using an acoustic liquid handler system (Echo 550 series instrument, Labcyte). A 10× intermediate compound plate (200 uM starting compound concentration and 10% DMSO) was prepared before starting the reaction. A typical reaction mixture (50 uL) comprised 40 mM HEPES buffer, pH 7.4, 25 mM MgCl2, 0.01% v/v triton-X-100, 1% v/v DMSO, 20 mM NaCl, 1-5 nM WT or H1047R PI3K protein, 20 uM ATP, and 50 uM PIP2diC8 or Soy PI. 1% DMSO buffer alone without test compound was employed as MAX control (full activity in the absence of any inhibitor), and no enzyme control was used to determine the level of background Adenosine 5′-diphosphate (ADP) (MIN control). First, Wild-type (WT) and H1047R mutant protein in kinase buffer with all components except ATP were incubated with or without compound at 27° C. for 1 h. After the pre-incubation, the reaction was initiated by the addition of 20 uL of 50 uM ATP (20 uM final concentration). The reaction was allowed to proceed until about 10% conversion of ATP (2 uM ADP) at 27° C. After that time, 5 uL of reaction was mixed with 5 uL of ADP-Kinase Glo Reagent (ADP-Glo Kinase assay kit, Promega cat. no. V9102) supplemented with MgCl2 10 mM to stop the reaction and deplete the remaining ATP for 40 min at room temperature. Then, 10 uL of Kinase Detection Reagent (ADP-Glo Kinase assay kit, Promega cat. no. V9102) was added to simultaneously convert ADP to ATP and allow the newly synthesized ATP to be measured using a luciferase/luciferin reaction. After 30 min at room temperature the light generated was measured using a luminometer (EnVision plate reader, Perkin Elmer). Process data through Genedata-Screener tool. Relative IC50 values are determined using luminescence units by calculating percent inhibition with respect to on-plate “MIN” and “MAX” controls. Data was analyzed using a 4-parameter nonlinear logistic equation (four-parameter logistic concentration-response curve): Y=bot+[(top−bot)/1+(x/IC50)slope] where Y=% inhibition, X=concentration yielding y% inhibition, Bottom=minimum value of y attained by curve, Top=maximum value of y attained by curve and Slope=steepness of curve at IC50. % Inh=[(median Max−x/median Max−median Min)]·100 IC50: concentration of compound that reduces a given response (ligand binding, enzyme response) by 50%. IC50 relative: concentration giving half the compound's maximum response.
(§3) For IC50 values shown in Table A, “A” means IC50<0.5 μM; “B” means IC50 ranging between 0.5 μM and 1.0 μM; “C” means IC50 ranging between 1 μM and 5 μM; “D” means IC50 ranging between 5 μM and 10 μM; “E” means IC50>10 μM.

[2] = molecular target: T2, PI3K-α (PIK3CA) H1047R mutant (p110α/p85α complex) (Homo sapiens, UniProt P42336, H1047R); assay: PI3K-Alpha kinase (PIK3CA) biochemical ADP-Glo assay, H1047R mutant; details: 20 uM ATP, 1 h pre-incubation
T2 construct: Recombinant, catalytically active human full length PIK3KA Wild-type and H1047R mutant were purchased as 1:1 complex; 6xHis (N); purchased EMD Millipore Sigma 14-792M
T2 sequence (P42336 whole entry H1047R): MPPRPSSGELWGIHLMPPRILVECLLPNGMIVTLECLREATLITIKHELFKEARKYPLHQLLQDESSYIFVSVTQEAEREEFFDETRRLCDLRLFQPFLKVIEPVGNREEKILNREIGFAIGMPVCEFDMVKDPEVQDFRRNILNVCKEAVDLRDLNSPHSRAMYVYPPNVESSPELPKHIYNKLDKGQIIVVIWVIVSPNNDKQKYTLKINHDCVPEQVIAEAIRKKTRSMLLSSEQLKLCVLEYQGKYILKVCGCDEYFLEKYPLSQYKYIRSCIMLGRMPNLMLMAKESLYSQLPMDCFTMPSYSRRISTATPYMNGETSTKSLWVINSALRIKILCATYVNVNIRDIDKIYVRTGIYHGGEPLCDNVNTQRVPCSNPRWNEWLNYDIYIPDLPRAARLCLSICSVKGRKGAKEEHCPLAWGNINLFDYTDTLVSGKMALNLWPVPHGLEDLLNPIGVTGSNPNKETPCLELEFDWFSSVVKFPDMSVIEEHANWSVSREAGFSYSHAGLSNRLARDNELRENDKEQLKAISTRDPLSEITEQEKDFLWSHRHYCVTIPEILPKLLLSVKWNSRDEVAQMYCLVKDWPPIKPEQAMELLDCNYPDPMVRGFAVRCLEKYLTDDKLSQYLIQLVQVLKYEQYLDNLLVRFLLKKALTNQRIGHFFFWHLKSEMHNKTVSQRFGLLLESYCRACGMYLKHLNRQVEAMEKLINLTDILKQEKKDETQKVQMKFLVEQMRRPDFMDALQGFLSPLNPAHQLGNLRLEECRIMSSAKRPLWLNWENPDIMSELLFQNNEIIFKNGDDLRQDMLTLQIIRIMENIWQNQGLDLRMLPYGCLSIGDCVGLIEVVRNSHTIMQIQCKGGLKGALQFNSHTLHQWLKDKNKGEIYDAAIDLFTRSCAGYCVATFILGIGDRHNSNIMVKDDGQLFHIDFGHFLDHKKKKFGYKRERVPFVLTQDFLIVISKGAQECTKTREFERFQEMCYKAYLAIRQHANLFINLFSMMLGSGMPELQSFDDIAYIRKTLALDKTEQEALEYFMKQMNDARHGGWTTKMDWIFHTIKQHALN
T2 sequence (P27986 whole entry partner): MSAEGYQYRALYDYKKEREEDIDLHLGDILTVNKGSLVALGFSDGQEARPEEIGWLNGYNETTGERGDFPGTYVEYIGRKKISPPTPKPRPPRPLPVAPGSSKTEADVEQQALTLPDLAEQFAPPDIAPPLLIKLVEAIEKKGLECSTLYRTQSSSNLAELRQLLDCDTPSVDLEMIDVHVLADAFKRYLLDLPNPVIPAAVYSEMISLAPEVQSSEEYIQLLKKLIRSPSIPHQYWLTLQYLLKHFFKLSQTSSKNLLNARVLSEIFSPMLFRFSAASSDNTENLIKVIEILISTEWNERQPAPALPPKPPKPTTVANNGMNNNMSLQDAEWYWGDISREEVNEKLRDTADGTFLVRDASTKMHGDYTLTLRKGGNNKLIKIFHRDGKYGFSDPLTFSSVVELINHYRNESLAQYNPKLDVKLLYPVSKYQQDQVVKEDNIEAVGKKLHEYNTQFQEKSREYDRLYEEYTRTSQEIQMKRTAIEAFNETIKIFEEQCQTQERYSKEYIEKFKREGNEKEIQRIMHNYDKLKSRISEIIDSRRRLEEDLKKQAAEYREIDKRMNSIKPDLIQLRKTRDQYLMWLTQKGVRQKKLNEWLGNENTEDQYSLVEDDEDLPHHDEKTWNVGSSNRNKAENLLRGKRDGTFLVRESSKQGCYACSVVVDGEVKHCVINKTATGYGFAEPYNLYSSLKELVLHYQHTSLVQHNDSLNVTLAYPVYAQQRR
Text: as §1, §2, §3

[3] = PIP2diC8 lipid substrate (footnote 1)

Row | Structure (SMILES) | IC50 [1, 3] [µM] | IC50 [2, 3] [µM] | IC50 ([1]; Soy PI lipid substrate) [µM] | IC50 ([2]; Soy PI lipid substrate) [µM]
1 | Cc1cc(C(C)Nc2ccccc2C(=O)O)c2oc(C3CCCCC3)cc(=O)c2c1 (single isomer, unassigned; isomer 1) [Example 8, 2-[1-(2-Cyclohexyl-6-methyl-4-oxo-chromen-8-yl)ethylamino]benzoic acid, Isomer 1] | > 10 | 1 to 5 |  | 
2 | Cc1cc(C(C)Nc2ccccc2C(=O)O)c2oc(C3CCC(C)(C)CC3)cc(=O)c2c1 (single isomer, unassigned; isomer 1) [Example 10, 2-[1-[2-(4,4-Dimethylcyclohexyl)-6-methyl-4-oxo-chromen-8-yl]ethylamino]benzoic acid, Isomer 1] | 1 to 5 | < 0.5 |  | 
3 | CC(Nc1ccccc1C(=O)O)c1cccc2c(=O)cc(C3CCCCC3)oc12 (single isomer, unassigned; isomer 1) [Example 12, 2-[1-(2-Cyclohexyl-4-oxo-chromen-8-yl)ethylamino]benzoic acid, Isomer 1] | > 10 | > 10 |  | 
4 | Cc1cc(C(C)Nc2ccccc2C(=O)O)c2oc(C3CCC(F)(F)CC3)cc(=O)c2c1 (single isomer, unassigned; isomer 1) [Example 14, 2-[1-[2-(4,4-Difluorocyclohexyl)-6-methyl-4-oxo-chromen-8-yl]ethylamino]benzoic acid, Isomer 1] |  |  | > 10 | > 10
5 | Cc1cc(C(C)Nc2ccccc2C(=O)O)c2oc(C3CCC(F)(F)CC3)c(C)c(=O)c2c1 (single isomer, unassigned; isomer 1) [Example 16, 2-[1-[2-(4,4-Difluorocyclohexyl)-3,6-dimethyl-4-oxo-chromen-8-yl]ethylamino]benzoic acid, Isomer 1] |  |  | 0.5 to 1 | < 0.5
6 | Cc1cc(C(C)Nc2ccccc2C(=O)O)c2oc(C3Cc4ccccc4C3)cc(=O)c2c1 (single isomer, unassigned; isomer 1) [Example 18, 2-[1-(2-Indan-2-yl-6-methyl-4-oxo-chromen-8-yl)ethylamino]benzoic acid, Isomer 1] |  |  | > 10 | 1 to 5
7 | Cc1cc(C(C)Nc2ccccc2C(=O)O)c2oc(C3Cc4ccccc4C3)c(C)c(=O)c2c1 (single isomer, unassigned; isomer 1) [Example 21, 2-[1-(2-Indan-2-yl-3,6-dimethyl-4-oxo-chromen-8-yl)ethylamino]benzoic acid, Isomer 1] |  |  | 1 to 5 | < 0.5
8 | Cc1cc(C(C)Nc2ccccc2C(=O)O)c2oc(C3CCCCC3)cc(=O)c2c1 (single isomer, unassigned; isomer 2) [Example 9, 2-[1-(2-Cyclohexyl-6-methyl-4-oxo-chromen-8-yl)ethylamino]benzoic acid, Isomer 2] | < 0.5 | < 0.5 |  | 
9 | Cc1cc(C(C)Nc2ccccc2C(=O)O)c2oc(C3CCC(C)(C)CC3)cc(=O)c2c1 (single isomer, unassigned; isomer 2) [Example 11, 2-[1-[2-(4,4-Dimethylcyclohexyl)-6-methyl-4-oxo-chromen-8-yl]ethylamino]benzoic acid, Isomer 2] | > 10 | > 10 |  | 
10 | CC(Nc1ccccc1C(=O)O)c1cccc2c(=O)cc(C3CCCCC3)oc12 (single isomer, unassigned; isomer 2) [Example 13, 2-[1-(2-Cyclohexyl-4-oxo-chromen-8-yl)ethylamino]benzoic acid, Isomer 2] |  |  | > 10 | < 0.5
11 | Cc1cc(C(C)Nc2ccccc2C(=O)O)c2oc(C3CCC(F)(F)CC3)cc(=O)c2c1 (single isomer, unassigned; isomer 2) [Example 15, 2-[1-[2-(4,4-Difluorocyclohexyl)-6-methyl-4-oxo-chromen-8-yl]ethylamino]benzoic acid, Isomer 2] |  |  | > 10 | < 0.5
12 | Cc1cc(C(C)Nc2ccccc2C(=O)O)c2oc(C3CCC(F)(F)CC3)c(C)c(=O)c2c1 (single isomer, unassigned; isomer 2) [Example 17, 2-[1-[2-(4,4-Difluorocyclohexyl)-3,6-dimethyl-4-oxo-chromen-8-yl]ethylamino]benzoic acid, Isomer 2] |  |  | > 10 | > 10
13 | Cc1cc(C(C)Nc2ccccc2C(=O)O)c2oc(C3Cc4ccccc4C3)cc(=O)c2c1 (single isomer, unassigned; isomer 2) [Example 19, 2-[1-(2-Indan-2-yl-6-methyl-4-oxo-chromen-8-yl)ethylamino]benzoic acid, Isomer 2] |  |  | 1 to 5 | < 0.5
14 | Cc1cc(C(C)Nc2ccccc2C(=O)O)c2oc(C3Cc4ccccc4C3)c(C)c(=O)c2c1 (single isomer, unassigned; isomer 2) [Example 22, 2-[1-(2-Indan-2-yl-3,6-dimethyl-4-oxo-chromen-8-yl)ethylamino]benzoic acid, Isomer 2] |  |  | > 10 | > 10
15 | Cc1cc(C(C)Nc2ccccc2C(=O)O)c2oc(C3(c4ccccc4)CC3)cc(=O)c2c1 (stereo not drawn) [Example 7, 2-[1-[6-Methyl-4-oxo-2-(1-phenylcyclopropyl)chromen-8-yl]ethylamino]benzoic acid; 2,2,2-trifluoroacetic acid] |  |  | > 10 | < 0.5
